Key:
[1] = target: Carboxylic ester hydrolase (Equus caballus, UniProt Q9N1N9); assay: Enzyme Inhibition Assay; details: 30 °C
Procedure: (§1) AChE and BChE inhibitory activities were measured in vitro by a modified spectrophotometric method. all the inhibition studies were performed using a Spectra Max microplate spectrophotometer from Molecular Devices, CA, USA.

[2] = target: Acetylcholinesterase (Tetronarce californica, UniProt P04058); assay: Enzyme Inhibition Assay; details: 30 °C
Procedure: as §1

Carboxylic ester hydrolase, sequence (Q9N1N9 whole entry): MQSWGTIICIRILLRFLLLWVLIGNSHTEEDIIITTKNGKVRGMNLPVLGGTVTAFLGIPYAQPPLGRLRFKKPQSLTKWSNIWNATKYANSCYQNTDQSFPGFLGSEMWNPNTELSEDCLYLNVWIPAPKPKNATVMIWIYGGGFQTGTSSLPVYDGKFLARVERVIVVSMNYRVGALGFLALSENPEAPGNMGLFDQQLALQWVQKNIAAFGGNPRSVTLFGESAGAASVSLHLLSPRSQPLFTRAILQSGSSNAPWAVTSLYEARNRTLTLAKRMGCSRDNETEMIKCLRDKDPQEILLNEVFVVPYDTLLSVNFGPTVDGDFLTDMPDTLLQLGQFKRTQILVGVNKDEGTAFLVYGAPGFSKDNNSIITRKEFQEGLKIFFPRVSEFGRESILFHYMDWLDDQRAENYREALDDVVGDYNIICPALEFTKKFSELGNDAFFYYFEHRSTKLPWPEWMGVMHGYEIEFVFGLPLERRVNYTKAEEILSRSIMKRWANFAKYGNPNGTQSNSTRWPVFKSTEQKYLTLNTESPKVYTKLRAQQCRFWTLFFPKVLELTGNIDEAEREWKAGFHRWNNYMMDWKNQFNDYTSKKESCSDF
Acetylcholinesterase, sequence (P04058 whole entry): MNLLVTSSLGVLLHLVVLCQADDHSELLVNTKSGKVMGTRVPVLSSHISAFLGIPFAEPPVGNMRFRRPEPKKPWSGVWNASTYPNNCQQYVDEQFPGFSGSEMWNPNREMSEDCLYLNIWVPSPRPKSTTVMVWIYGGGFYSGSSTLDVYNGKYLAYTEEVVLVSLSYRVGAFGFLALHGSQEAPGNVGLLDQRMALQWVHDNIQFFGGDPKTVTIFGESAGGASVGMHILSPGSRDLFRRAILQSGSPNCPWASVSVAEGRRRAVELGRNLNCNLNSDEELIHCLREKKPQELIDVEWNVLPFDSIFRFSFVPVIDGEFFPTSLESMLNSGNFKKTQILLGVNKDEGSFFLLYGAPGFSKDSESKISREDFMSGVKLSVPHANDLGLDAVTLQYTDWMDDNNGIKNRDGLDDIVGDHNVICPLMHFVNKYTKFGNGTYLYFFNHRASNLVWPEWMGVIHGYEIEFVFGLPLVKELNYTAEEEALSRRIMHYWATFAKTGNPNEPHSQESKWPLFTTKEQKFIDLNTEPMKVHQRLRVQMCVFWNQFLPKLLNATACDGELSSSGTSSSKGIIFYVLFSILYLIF

| Structure (SMILES) | Ki [1] [µM] | Ki [2] [µM] |
| --- | --- | --- |
| COC(C)(C)[C@H]1Cc2c(n(C)c3ccccc3c2=O)O1 [Methyl isoplatydesmine, 4] | 19 | 30 |
| Cn1c2c(c(=O)c3ccccc31)C[C@@H](O)C(C)(C)O2 [Ribalinine, 3] | 70 | 30 |
| COc1ccc2c3c1O[C@H]1C[C@@H](O)C=C[C@@]31CCN(C)C2 [galantamine] | 32 |  |

Reference: BindingDB's records for doi:10.1080/14756360600889708 (University of Karachi, 2006)
